# Test results reported in ChEMBL document CHEMBL1153745, “The Caulerpa pigment caulerpin inhibits HIF-1 activation and mitochondrial respiration” (J Nat Prod, 2009).
# Activity calls are given as the source filed them. The rule behind the calls is not given here.
# How the values were obtained:
# [1] = test system: HUVEC; test: Antiangiogenic activity in human HUVEC cells assessed as decrease in branch point number up to 30 uM after 18 hrs by Matrigel based tube formation assay; assay type: functional, cell-based
# [2] = test system: MDA-MB-231; test: Cytotoxicity against human MDA-MB-231 cells up to 30 uM after 22 hrs by neutral red method; assay type: cell-based; conditions: mda-mb-231, 22 h
# [3] = test system: HUVEC; test: Antiangiogenic activity in human HUVEC cells assessed as decrease in tube length up to 30 uM after 18 hrs by Matrigel based tube formation assay; assay type: functional, cell-based
# [4] = test system: T47D; test: Inhibition of electron transport protein complex 1 in digitonin-permeabilized human T47D cells assessed as decrease in oxygen consumption at 30 uM by mitochondrial respiration assay; assay type: cell-based
# [5] = target: T1, Hypoxia inducible factors; HIF-1-alpha, HIF-2-alpha (Homo sapiens) (UniProt Q16665+Q99814); test: Inhibition of 1,10-phenanthroline-induced HIF1 activation in human T47D cells after 16 hrs by pTK-HRE3-luciferase reporter gene assay; assay type: cell-based
# [6] = target: T1, Hypoxia inducible factors; HIF-1-alpha, HIF-2-alpha (Homo sapiens); test: Inhibition of 1,10-phenanthroline-induced HIF1 activation in human T47D cells at 1 uM after 16 hrs by pTK-HRE3-luciferase reporter gene assay; assay type: cell-based
# [7] = target: T1, Hypoxia inducible factors; HIF-1-alpha, HIF-2-alpha (Homo sapiens); test: Inhibition of hypoxia-induced HIF1 activation in human T47D cells at 1 uM after 16 hrs by pTK-HRE3-luciferase reporter gene assay; assay type: cell-based
# [8] = test system: T47D; test: Cytotoxicity against human T47D cells under hypoxic conditions at 30 uM after 16 hrs; assay type: cell-based
# [9] = test system: T47D; test: Effect on luciferase expression in hypoxia-stimulated human T47D cells expressing pGL3 construct at 30 uM after 16 hrs by reporter gene assay; assay type: functional
# [10] = test system: T47D; test: Inhibition of hypoxia-induced VEGF mRNA expression in human T47D cells at 30 uM after 16 hrs by RT-PCR; assay type: functional, cell-based
# [11] = test system: T47D; test: Inhibition of hypoxia-induced GLUT1 mRNA expression in human T47D cells at 30 uM after 16 hrs by RT-PCR; assay type: functional, cell-based
# [12] = test system: T47D; test: Inhibition of hypoxia-induced VEGF mRNA expression in human T47D cells at 10 uM after 16 hrs by RT-PCR; assay type: functional, cell-based
# [13] = test system: T47D; test: Inhibition of hypoxia-induced GLUT1 mRNA expression in human T47D cells at 10 uM after 16 hrs by RT-PCR; assay type: functional, cell-based
# [14] = test system: T47D; test: Inhibition of 1,10-phenanthroline-induced VEGF mRNA expression in human T47D cells at 30 uM after 16 hrs by RT-PCR; assay type: functional, cell-based
# [15] = test system: T47D; test: Inhibition of 1,10-phenanthroline-induced GLUT1 mRNA expression in human T47D cells at 30 uM after 16 hrs by RT-PCR; assay type: functional, cell-based
# [16] = test system: T47D; test: Inhibition of hypoxia-induced secreted VEGF protein level in human T47D cells at 10 uM after 16 hrs by ELISA; assay type: functional, cell-based
# [17] = test system: T47D; test: Inhibition of secreted VEGF protein level in human T47D cells under normoxic conditions at 10 uM after 16 hrs by ELISA; assay type: functional, cell-based
# [18] = test system: HUVEC; test: Antiangiogenic activity in human HUVEC cells assessed as inhibition of hypoxic T47D cell-conditioned media-induced tube formation at 10 uM after 18 hrs by Matrigel based tube formation assay; assay type: functional
# [19] = test system: HUVEC; test: Antiangiogenic activity in human HUVEC cells assessed as inhibition of hypoxic T47D cell-conditioned media-induced tube formation at 30 uM after 18 hrs by Matrigel based tube formation assay; assay type: functional
# [20] = test system: HUVEC; test: Antiangiogenic activity in human HUVEC cells assessed as inhibition of normoxic T47D cell-conditioned media-induced tube formation at 30 uM after 18 hrs by Matrigel based tube formation assay; assay type: functional
# [21] = test system: MDA-MB-231; test: Inhibition of cell migration in human MDA-MB-231 cells under normoxic conditions after 22 hrs by wound-healing assay; assay type: functional, cell-based
# [22] = test system: MDA-MB-231; test: Inhibition of cell migration in human MDA-MB-231 cells under hypoxic conditions after 22 hrs by wound-healing assay; assay type: functional, cell-based
# [23] = test system: MDA-MB-231; test: Cytotoxicity against human MDA-MB-231 cells under hypoxic conditions up to 30 uM after 22 hrs by neutral red method; assay type: cell-based; conditions: mda-mb-231, 22 h
# [24] = test system: MDA-MB-231; test: Growth inhibition of human MDA-MB-231 cells at 1 uM to 30 uM after 48 hrs by sulforhodamine B assay; assay type: functional, cell-based
# [25] = test system: DU-145; test: Growth inhibition of human DU145 cells at 1 uM to 30 uM after 48 hrs by sulforhodamine B assay; assay type: functional, cell-based
# [26] = test system: T47D; test: Growth inhibition of human T47D cells at 1 uM to 30 uM after 48 hrs by sulforhodamine B assay; assay type: functional, cell-based
# [27] = test system: MCF7; test: Growth inhibition of human MCF7 cells at 1 uM to 30 uM after 48 hrs by sulforhodamine B assay; assay type: functional, cell-based
# [28] = test system: PC-3; test: Growth inhibition of human PC3 cells at 30 uM after 48 hrs by sulforhodamine B assay; assay type: functional; conditions: PC-3, 48 h, read-out: GI
# [29] = Growth inhibition of human HMEC cells up to 30 uM after 48 hrs by sulforhodamine B assay; assay type: cell-based; conditions: read-out: GI
# [30] = test system: T47D; test: Inhibition of hypoxia-induced nuclear HIF1alpha accumulation in human T47D cells at 10 uM after 4 hrs by Western blot analysis; assay type: functional, cell-based
# [31] = test system: T47D; test: Inhibition of 1,10-phenanthroline-induced nuclear HIF1alpha accumulation in human T47D cells at 10 uM after 4 hrs by Western blot analysis; assay type: functional, cell-based
# [32] = test system: T47D; test: Inhibition of hypoxia-induced nuclear HIF1beta accumulation in human T47D cells at 10 uM after 4 hrs by Western blot analysis; assay type: functional, cell-based
# [33] = test system: T47D; test: Inhibition of electron transport protein complex 1 in human T47D cells assessed as reduction of oxygen consumption at 10 uM; assay type: cell-based
# [34] = test system: T47D; test: Inhibition of electron transport protein complex 1 in human T47D cells assessed as reduction of oxygen consumption at 30 uM; assay type: cell-based
# [35] = test system: T47D; test: Inhibition of electron transport protein complex 1 in human T47D cells assessed as reduction of oxygen consumption at 30 uM pretreated for 2 hrs relative to untreated control; assay type: cell-based
# [36] = test system: T47D; test: Inhibition of electron transport protein complex 1 in digitonin-induced permeable human T47D cells assessed as reduction of oxygen consumption at 30 uM relative to control; assay type: cell-based
# [37] = test system: T47D; test: Inhibition of electron transport protein complex 1 in human T47D cells assessed as decrease in oxygen consumption at 30 uM pretreated for 2 hrs before malate and pyruvate addition by mitochondrial respiration assay; assay type: cell-based
# [38] = test system: T47D; test: Inhibition of electron transport protein complex 2 in human T47D cells assessed as decrease in oxygen consumption at 30 uM pretreated for 2 hrs before succinate addition by mitochondrial respiration assay; assay type: cell-based
# [39] = test system: T47D; test: Inhibition of electron transport protein complex 3 in human T47D cells assessed as decrease in oxygen consumption at 30 uM pretreated for 2 hrs before succinate addition by mitochondrial respiration assay; assay type: cell-based
# [40] = test system: T47D; test: Inhibition of electron transport protein complex 4 in human T47D cells assessed as decrease in oxygen consumption at 30 uM pretreated for 2 hrs before TMPD/ascorbate addition by mitochondrial respiration assay; assay type: cell-based
# [41] = test system: T47D; test: Inhibition of cellular respiration in human T47D cells assessed as oxygen consumption; assay type: functional, cell-based
compound,measurement,setting,value
COC(=O)/C1=C/c2c([nH]c3ccccc23)/C(C(=O)OC)=C\c2c1[nH]c1ccccc21 [CAULERPIN],Activity,[1],Active
same,Activity,[2],15%
same,Activity,[3],Active
same,Activity,[4],Active
same,Activity,[5],Dose-dependent effect
same,Activity,[6],Active
same,Activity,[7],Active
same,Activity,[8],<= 10%
same,Activity,[9],<=10%
same,Activity,[10],Active
same,Activity,[11],Active
same,Activity,[12],inactive
same,Activity,[13],inactive
same,Activity,[14],inactive
same,Activity,[15],inactive
same,Activity,[16],Active
same,Activity,[17],inactive
same,Activity,[18],Active
same,Activity,[19],Active
same,Activity,[20],inactive
same,Activity,[21],Dose-dependent effect
same,Activity,[22],Dose-dependent effect
same,Activity,[23],15%
same,Activity,[24],Active
same,Activity,[25],inactive
same,Activity,[26],Active
same,Activity,[27],Active
same,inhibition of growth at 30 µM,[28],52%
same,inhibition at 48 h,[29],< 25%
same,Activity,[30],Active
same,Activity,[31],inactive
same,Activity,[32],inactive
same,Activity,[33],inactive
same,inhibition,[34],30%
same,inhibition,[35],87%
same,inhibition,[36],57%
same,Activity,[37],Active
same,Activity,[38],inactive
same,Activity,[39],inactive
same,Activity,[40],inactive
same,Activity,[41],Dose-dependent effect
